The text below walks through data of US5457103A, “3',5'-di-tert.-butyl-4'-hydroxy flavones” (Adir et Compagnie, priority 1992, dated 1995).

For test [1], the system named is Human LDLs. The test can be described thus: Modification of LDLs by copper sulphate (inhibition of LDL oxidation, MDA production). It counts as biochemical. The note with it: 24 hours, copper sulfate 5 μM, compounds 0.1 μM to 100 μM; read-out: IC50 (reduction by 50% of the production of MDA), oxidation of LDLs by copper sulfate. On the procedure: (§1) This activity was compared with that of probucol and vitamin E taken as reference products.
Modification of LDLs by copper sulphate
Human LDLs are incubated for 24 hours in the presence of copper sulfate (5 μM) and in the absence or in the presence of the compounds tested (from 0.1 μM to 100 μM).
After incubation, the peroxidation of the LDLs is evaluated by electrophoresis on agar gel and by the formation of one of the products of lipid peroxidation: malonic dialdehyde (MDA) (cf. Parthasarathy S. et al., J. Clin. Invest., 77, (1986), 641-644).
The activity of the compounds tested is evaluated by calculating the concentrations that reduce by 50% (IC50) the production of MDA compared with the control experiments in the absence of a product of the invention.

Test [2] relates to Human LDLs. The test can be described thus: Modification of LDLs by endothelial cells of the rabbit aorta (inhibition of LDL oxidation, MDA production). In kind it is cell-based. The note with it: 24 hours, endothelial cells of rabbit aorta (RECL B4 line), compounds 0.1 to 100 μM; read-out: IC50 (reduction by 50% of the production of MDA), oxidation of LDLs by endothelial cells. The method, then:
as §1
Modification of LDLs by endothelial cells
Human LDLs are incubated for 24 hours in the presence of endothelial cells of the rabbit aorta (RECL B4 line, provenance: Pr. Steinberg, USA) and in the absence or in the presence of the tested compounds (from 0.1 to 100 μM).
After incubation, the peroxidation of the LDLs is evaluated as in Example 21 by electrophoresis on agar gel and by the formation of MDA (cf. Steinbrecher, U.P. et al., Proc. Nat. Acad. Sci. USA, 81, (1984), 3883-3887). The activity of the compounds tested is evaluated by calculating the concentrations that reduce by 50% (IC50) the production of MDA compared with the control experiments in the absence of a product of the invention.
The results of this test of inhibition of oxidation of LDLs by endothelial cells are grouped below: […]

For test [3], the system named is coronary arteries caused to contract by F2α prostaglandin (PGF2α). Briefly: Vasorelaxant activity on isolated coronary artery rings contracted by PGF2α. On the set-up: species or system Yucatan miniature pigs. The note with it: for activity at 0.1 µM / activity at 0.3 µM / activity at 1 µM / activity at 3 µM / activity at 10 µM: 0.25 h, PGF2α 4 μM, indomethacin 10 μM, cumulative concentrations every 15 minutes, read-out: tension as a percentage of the maximum tension observed under PGF2α. On the procedure:
Study of the compounds of the invention on isolated vessels
Yucatan miniature pigs (Ch. River) are anaesthetised with pentobarbitone. The circumflex branch of the left coronary artery is removed and proximal rings of approximately 4 mm are prepared. The organs are placed in a temperature-controlled 20 ml bath containing a physiological solution having the composition:
maintained at 37° C., pH =7.4 and with 95% oxygen and 5% carbon dioxide. The initial tension is established progressively up to 6 g. After a stabilisation period of 60 minutes, the rings are caused to contract by PGF2a (4 μM) in the presence of indomethacin (10 μM). As soon as this concentration has stabilised, the products of the present invention are tested by adding cumulative concentrations of the product of Example 17 and probucol every 15 minutes in comparison with the control experiments with the solvent used (dimethyl sulfoxide:DMSO).

As for `CC(C)(C)c1cc(-c2cc(=O)c3ccc(O)cc3o2)cc(C(C)(C)C)c1O` [Example 1, 3',5'-di-tert-butyl-7,4'-dihydroxyflavone], in test [1], the half-inhibitory concentration (IC50) (usually the concentration needed to halve the response being measured) was determined as 1000 nM.

With `CCCCCCOc1ccc2c(=O)cc(-c3cc(C(C)(C)C)c(O)c(C(C)(C)C)c3)oc2c1` [Example 2, 3',5'-di-tert.-butyl-7-n-hexyloxy-4'-hydroxyflavone], the IC50 in test [1] amounted to 5000 nM.

For `CC(C)(C)c1cc(-c2cc(=O)c3ccc(OCCN4CCOCC4)cc3o2)cc(C(C)(C)C)c1O` [Example 3, 3', 5'-di-tert.-butyl-4'-hydroxy-.7-(4"-morpholinylethoxy)flavone], the IC50 in test [1] worked out at 800 nM.

`CC(C)(C)c1cc(-c2cc(=O)c3ccc(OCc4ccc(Cl)cc4)cc3o2)cc(C(C)(C)C)c1O` [Example 4, 7-p-chlorobenzyloxy-3',5'-di-tert.-butyl-4'-hydroxyflavone]: in test [1], the IC50 worked out at 7000 nM.

On to `CC(C)(C)c1cc(-c2cc(=O)c3ccc(OCC(=O)N4CCCCC4)cc3o2)cc(C(C)(C)C)c1O` [Example 5, 3',5'-di-tert-butyl-4'-hydroxy-7-(2"-piperidino-2"-oxoethoxy)flavone], for which, in test [1], the half-maximal inhibitory concentration (IC50) is 3000 nM.

Turning to `CC(C)(C)c1cc(-c2cc(=O)c3ccc(OCC(=O)N4CCN(Cc5ccccc5)CC4)cc3o2)cc(C(C)(C)C)c1O` [Example 6, 3',5'-di-tert.-butyl-4'-hydroxy-7-[2"-(N-benzylpiperazino)-2"-oxo-ethoxy]flavone], the IC50 in test [1] stood at 3000 nM.

For the molecule `CCN(CC)C(=O)COc1ccc2c(=O)cc(-c3cc(C(C)(C)C)c(O)c(C(C)(C)C)c3)oc2c1` [Example 7, 3',5'-di-tert-butyl-4'-hydroxy-7-(N,N-diethylacetamidoxy) flavone], the IC50 in test [1] came out at 3000 nM.

As to `CC(C)(C)c1cc(-c2cc(=O)c3ccccc3o2)cc(C(C)(C)C)c1O` [Example 14, 3',5'-di-tert-butyl-4'-hydroxyflavone], the IC50 in test [1] was found to be 3000 nM; in test [2] it was 2500 nM.

Regarding `CCOC(=O)C(C)(C)Oc1ccc2c(=O)cc(-c3cc(C(C)(C)C)c(O)c(C(C)(C)C)c3)oc2c1` [Example 15, Ethyl 2-17-(3',5'-di-tert.-butyl-4'-hydroxy)flavonyl]oxy-2,2-dimethyl acetate], the IC50 in test [1] was 3000 nM; in test [2] it was 500 nM.

For the molecule `CCOC(=O)COc1ccc2c(=O)cc(-c3cc(C(C)(C)C)c(O)c(C(C)(C)C)c3)oc2c1` [Example 16, Ethyl 2-[7-(3',5'-di-tert.-butyl-4'-hydroxy)flavonyl]oxyacetate], in test [3] (Sus scrofa), the activity at 0.1 µM was 95.4%, the activity at 0.3 µM was determined as 85%, the activity at 1 µM was found to be 74.1% and the activity at 3 µM was 37.3%. Besides, the activity at 10 µM in test [3] (Sus scrofa) is 20.2%. In test [3] (Sus scrofa, coronary artery rings contracted by PGF2α, read-out: IC50 of vascular relaxation), the IC50 is roughly 2600 nM. Besides, in test [3] (coronary artery rings contracted by PGF2α), the “vascular relaxation (in words)” value is “concentration-dependent vascular relaxation”. In test [1], the IC50 was found to be 3000 nM. In addition, the half-maximal inhibitory concentration (IC50) in test [2] was 800 nM.

As to `CC(C)(C)c1cc(-c2cc(=O)c3ccc(OCC(=O)O)cc3o2)cc(C(C)(C)C)c1O` [Example 17, 2-[7-(3',5'-di-tert.-butyl-4'-hydroxy)flavonyl]oxyacetic acid], the IC50 in test [1] came to 3000 nM; in test [2], 500 nM.

For `CC(C)(C)c1cc(-c2cc(=O)c3ccc(OCC(=O)O)cc3o2)cc(C(C)(C)C)c1O` [Example 18], the IC50 in test [1] was determined as 5000 nM.

Consider `CC(C)(C)c1cc(C(=O)Oc2ccc3c(=O)cc(-c4cc(C(C)(C)C)c(O)c(C(C)(C)C)c4)oc3c2)cc(C(C)(C)C)c1O` [Example 20, 3',5'-di-tert-butyl-4'-hydroxy-7-(3",5"-di-tert-butyl-4"-hydroxy)benzoyloxyflavone], for which the IC50 in test [1] turned out to be 30000 nM; in test [2], 700 nM.

Regarding `CC(C)(Sc1cc(C(C)(C)C)c(O)c(C(C)(C)C)c1)Sc1cc(C(C)(C)C)c(O)c(C(C)(C)C)c1` [PROBUCOL, reference compound], in test [3] (Sus scrofa), the activity at 0.1 µM was 93.3%, the activity at 0.3 µM stood at 85.6%, the activity at 1 µM was found to be 77.3% and the activity at 3 µM is 66%. The activity at 10 µM in test [3] (Sus scrofa) worked out at 49.2%. For the same molecule, the IC50 in test [1] is 3000 nM. The IC50 in test [2] turned out to be 4000 nM.

For VITAMIN E [reference compound], the figures for the IC50 in test [1] and in test [2] were greater than 100000 nM and 4000 nM, respectively.
